{"source": "patent US10597377B2", "about": "“Somatostatin modulators and uses thereof” (priority 2016, dated 2020)"}
{"target": "human SSTR2 (Homo sapiens (Human), UniProt P30874)", "sequence (P30874 whole entry)": "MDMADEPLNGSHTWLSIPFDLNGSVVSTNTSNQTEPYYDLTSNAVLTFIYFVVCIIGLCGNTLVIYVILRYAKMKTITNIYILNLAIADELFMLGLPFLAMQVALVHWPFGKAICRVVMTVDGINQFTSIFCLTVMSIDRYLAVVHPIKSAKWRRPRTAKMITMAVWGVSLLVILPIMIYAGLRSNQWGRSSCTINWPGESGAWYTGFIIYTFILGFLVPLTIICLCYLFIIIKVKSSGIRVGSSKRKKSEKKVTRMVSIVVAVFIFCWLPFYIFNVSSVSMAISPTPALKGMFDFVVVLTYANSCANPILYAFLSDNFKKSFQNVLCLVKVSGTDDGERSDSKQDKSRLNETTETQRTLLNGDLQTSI", "assay": "Human SSTR2 intracellular cAMP functional assay for agonists (CHO-K1 cells, HTRF)", "type": "cell-based", "conditions": "inhibition of cAMP activities via human SST2R; CHO-K1 cells stably expressing human SSTR2", "protocol": "Functional Assay for SSTR2 Agonists\nGeneral overview: All five SSTR subtypes are Gi coupled G-protein coupled receptors (GPCRs) that lead to decreases in intracellular cyclic AMP (cAMP) when activated by an agonist. […] Human SSTR2 intracellular cAMP assay is described below. The human SSTR1, 3, 4 and 5 assays follow the same protocol of SSTR2.\nThe cells are cultured at 37° C., 5% CO2 and 95% humidity. […] The cells are incubated for 20 minutes at 37° C. […] The cells are treated with 50 μL of lysis buffer (HRTF cAMP kit, Cisbio). […] The time-resolved fluorescent signal is read with a Tecan M1000Pro multiplate reader. The intracellular cAMP concentrations are calculated by regression to a standard curve and are plotted vs. the concentration of the compounds of the invention and the EC50 of the compounds are calculated using standard methods. All data manipluations are in GraphPad Prism v6.", "units": {"EC50": "nM"}}
{"smiles": "COC(=O)Nc1c(F)cncc1-c1ccc2ncc(-c3cc(C)cc(F)c3)c(N3CCC(N)CC3)c2c1", "note": "[2-171, methyl N-{3-[4-(4-aminopiperidin-1-yl)-3-(3-fluoro-5-methylphenyl)quinolin-6-yl]-5-fluoropyridin-4-yl}carbamate]", "EC50": "< 10"}
{"smiles": "Cc1cc(F)cc(-c2cnc3ccc(-c4cc(F)cc(C#N)c4O)nc3c2N2CCC(N)CC2)c1", "note": "[3-2, 3-[8-(4-aminopiperidin-1-yl)-7-(3-fluoro-5-methylphenyl)-1,5-naphthyridin-2-yl]-5-fluoro-2-hydroxybenzonitrile]", "EC50": "< 10"}
{"smiles": "N#Cc1cncc(-c2ccc3ncc(-c4cc(F)cc(F)c4)c(N4CC[C@H]5NCCO[C@@H]5C4)c3c2)c1N", "note": "(racemic) [2-244, 5-{4-[trans-octahydro-1H-pyrido[3,4-b]morpholin-6-yl]-3-(3,5-difluorophenyl)quinolin-6-yl}-4-aminopyridine-3-carbonitrile]", "EC50": "< 10"}
{"smiles": "COC(=O)Nc1ncc(F)cc1-c1ccc2ncc(-c3cc(C)cc(F)c3)c(N3CCC(N)CC3)c2c1", "note": "[2-182, methyl N-{3-[4-(4-aminopiperidin-1-yl)-3-(3-fluoro-5-methylphenyl)quinolin-6-yl]-5-fluoropyridin-2-yl}carbamate]", "EC50": "< 10"}
{"smiles": "Cc1cc(F)cc(-c2nnc3cc(Cl)c(-c4cc(F)cc(C(N)=O)c4)cc3c2N2CC[C@@H](N)[C@H](O)C2)c1", "note": "(relative stereo) [1-26, 3-{4-[trans-4-amino-3-hydroxypiperidin-1-yl]-7-chloro-3-(3-fluoro-5-methylphenyl)cinnolin-6-yl}-5-fluorobenzamide]", "EC50": "< 10"}
{"smiles": "Nc1ncccc1-c1ccc2ncc(-c3cc(F)cc(F)c3)c(N3CC[C@H]4NCCO[C@@H]4C3)c2c1", "note": "(racemic) [2-246]", "EC50": "< 10"}
{"smiles": "C#Cc1ccnc(-c2ccc3ncc(-c4cc(F)cc(F)c4)c(N4CC[C@H]5NCCO[C@@H]5C4)c3c2)c1N", "note": "[2-277, 2-{4-[trans-octahydro-1H-pyrido[3,4-b]morpholin-6-yl]-3-(3,5-difluorophenyl)quinolin-6-yl]-4-ethynylpyridin-3-amine]", "EC50": "< 10"}
